One data set has as its system leucémie L1210. Nature of the data set: Oncostatic activity on L1210 leukemia in mice (survival T/C). Format: in vivo, souris (DBA2 - C57BL 100). The note with it: for Dose optimale: L1210 leukemia, 10^5 cells i.p., treatment on days 1, 5 and 9, suspension in olive oil. From the text: Le composé selon la présente invention a été étudié sur la leucémie L1210 en comparaison avec d'autres nitrosourées présentant également des propriétés oncostatiques. Il s'agit essentiellement de la BCNU, la CCNU, la Me CCNU, la RFCNU, la RPCNU et la Chlorozotocine. Ces composés, ainsi que le XPCNU, sont bien connus et décrits par exemple dans Biomedicine Express, vol. 23, n° 10 du 10 décembre 1975, pages 410-413.
Pour chaque composé, 10^5 cellules leucémiques ont été inoculées à 80 souris (DBA2 - C57BL 100), par voie intrapéritonéale.
Les traitements ont débuté un jour après la transplantation et ont été poursuivis les cinquième et neuvième jours. Les dérivés devant être testés sont administrés en suspension dans l'huile d'olive à 70 souris. Les doses injectées sont variables, chaque souris étant pesée individuellement. Les 10 souris restantes constituent le groupe témoin et reçoivent, en placébo, des volumes équivalents d'huile d'olive.
Le premier jour, les nitrosourées testées sont administrées, en doses variables, aux souris traitées.
Les cinquième et neuvième jours, les injections sont renouvelées sans signe macroscopique de toxicité.
Pour chaque composé, les activités oncostatiques ont été déterminées pour une dose spécifique et varient en fonction de la quantité administrée. Lorsque l'activité oncostatique est supérieure à 125 et si la différence des groupes témoins et traités à une signification statistique (test de WILCOXON), le composé est considéré comme étant actif à la dose utilisée.
La figure ci-annexée indique en fonction des doses de principe actif appliquées en milligramme par kilogramme le rapport T/C défini comme suit : T/C = moyenne de survie des groupes traités / moyenne de survie des groupes témoins x 100
La mention ∞ indique que plus de 50 % des animaux traités sont guéris.

A short description of another data set: Acute toxicity (DL50). Format: in vivo. As for the experimental part:
On a, en outre, indiqué ci-après dans le tableau pour les composés connus et pour le composé selon la présente invention les MEDI, c'est-à-dire les doses médianes, les doses optimums les DL50 et par là l'index thérapeutique de ces composés.
On constate qu'à l'activité déterminée précédemment s'ajoute la dose médiane la plus grande jamais observée et une DL50 aiguë de 700 mg/kg qui est la plus avantageuse parmi toutes les autres nitrosourées, ce qui conduit à l'indice thérapeutique le plus élevé jamais obtenu jusqu'à présent pour ce type de composé oncostatique.

Where [1] appears, read: derived from DL50 and optimal dose on L1210.

A word on the LD50: it is the dose expected to kill half of the subjects tested. A higher LD50 goes with a less toxic substance.

As to `O=NN(CCCl)C(=O)N[C@H]1C(O)O[C@H](CO)[C@@H](O)[C@@H]1O` (some centres unmarked) [CZT, Chlorozotocine], in the data set with leucémie L1210, the Dose optimale was 15 mg/kg. Further, in the data set “Acute toxicity (DL50)” (acute DL50), the DL50 came to 35 mg/kg. In addition, the “Index thérapeutique” value in “Acute toxicity (DL50)” (setting [1]) was 2,33.
The corresponding values for `CC1(C)O[C@@H]2[C@@H](COC(=O)c3ccc([N+](=O)[O-])cc3)OC(NC(=O)N(CCCl)N=O)[C@@H]2O1` (some centres unmarked) [RFCNU] are 20 mg/kg, 90 mg/kg and 4,5.
`CC(=O)O[C@@H]1[C@H](OC(C)=O)COC(NC(=O)N(CCCl)N=O)[C@@H]1OC(C)=O` (some centres unmarked) [RPCNU] yielded a Dose optimale in the data set with leucémie L1210 of 15 mg/kg. The same compound returned a DL50 in “Acute toxicity (DL50)” (acute DL50) of 50 mg/kg. Besides, the “Index thérapeutique” value in “Acute toxicity (DL50)” (setting [1]) was 3,3.
In the case of `CC(=O)OC1COC(NC(=O)N(CCCl)N=O)C(OC(C)=O)C1OC(C)=O` (centres unmarked) [XPCNU], the Dose optimale in the data set with leucémie L1210 is listed as 15 mg/kg.
`C[C@]12CC[C@H]3[C@@H](CC=C4C[C@@H](O)CC[C@@]43C)[C@@H]1CC[C@@H]2NC(=O)N(CCCl)N=O` [Composé ex. 1, 17β-(N-2-chloroéthyl-N'-nitrosouréyl)-5-androsten-3β-ol] came in with a Dose optimale in the data set on leucémie L1210 of 125 mg/kg. The “activité oncostatique (T/C)” value with leucémie L1210 (T/C = mean survival treated / mean survival controls x 100, as a function of dose (figure), compared with other nitrosoureas) is on record as “la meilleure activité oncostatique”. In addition, in the data set “Acute toxicity (DL50)” (in vivo, acute DL50), the 50% lethal dose (LD50) amounted to 700 mg/kg. In addition, the selectivity ratio in “Acute toxicity (DL50)” (mouse, in vivo, derived from DL50 and optimal dose on L1210, read-out: Index thérapeutique) turned out to be 5.6.
